According to US20060211651A1, “Persulfated oligosaccharide acting on selectins and chemokine” (Taisho Pharmaceutical Co., Ltd., priority 2002, published 2006):

Assays:
[1] = test system: secondary lymphoid tissue chemokine; assay: Ca2+ mobilization in L1.2/CCR7 cells stimulated with SLC; type: cell-based; conditions: glycosaminoglycan 100 μg/ml; L1.2/CCR7 cells loaded with Fura-2; FIG. 8
Experimental: i) applying Fura-2 to stimulate to L1.2/CCR7 cell (1×10^6 cells/ml) with secondary lymphoid tissue chemokine in the presence or absence of the therapeutic or prophylactic agent (100 μg/ml) of the present invention, and
ii) measuring a fluorescent rate to monitor an intracellular calcium concentration according to the description of Hirose, J. et al. [J. Biol. Chem., 276, 5228-5234 (2001); all teachings of which are hereby incorporated by reference].
L1.2/CCR7 cells (1×10^6 cells/ml) were loaded with Fura-2, and then stimulated with secondary lymphoid tissue chemokine (“SLC” in FIG. 8) or C-terminal truncated secondary lymphoid tissue chemokine (“SLC-T” in FIG. 8), in the presence or absence of glycosaminoglycan (100 μg/ml). The intracellular calcium concentration was monitored by measuring a fluorescent rate in the same manner as described in the previous report [Hirose, J. et al., J. Biol. Chem., 276, 5228-5234 (2001)]. Chondroitin sulfate E (“CS E” in FIG. 8) and chondoroitin sulfate A (“CS A” in FIG. 8) were used as the glycosaminoglycan. In FIG. 8, an arrowhead indicates a time point at which stimulation was given.

CD44-Ig = assay: ELISA, biotinylated versican binding to CD44-Ig in presence of glycosaminoglycan; design: species or system human; conditions: 100 μg/ml glycosaminoglycan; FIG. 5
Experimental: (§1) A well of a 96 well flat bottom microtiter plate was coated with BSA (5 μg/ml), anti-versican monoclonal antibody 2B1 (5 μg/ml), CD44-Ig (7 μg/ml), L-selectin-Ig (3 μg/ml), P-selectin-Ig (3 μg/ml) or chemokine (1 μg/ml), and then blocked with a phosphate buffered physiological saline containing 3% by weight of BSA. As the above chemokine, secondary lymphoid tissue chemokine, γ-interferon inducible protein-10, platelet factor 4, stromal cell-derived factor-1β [manufactured by Pepro Tech] and stromal cell-derived factor-1α [manufactured by Pepro Tech] were used.
(§2) Thereafter, the plate was washed with the buffer A, and enzyme-linked immunosorbent assay was performed in the same manner as that of the previous report [Kawashima, H. et al., J. Biol. Chem., 275, 35448-35456 (2000)]. Binding was determined by measuring absorbance at 620 nm using alkaline phosphatase-conjugated streptavidin and Blue Phos™ substrate. In FIG. 5, expression of an abscissa axis is the same as that of FIG. 4.

P-selectin-Ig = assay: Binding inhibition assay (ELISA), biotinylated versican to P-selectin-Ig, various concentrations; conditions: dose-dependent, FIG. 2 panel B
[2] = target: γ-interferon inducible protein-10 (Homo sapiens, UniProt P02778); assay: BIAcore surface plasmon resonance, immobilized glycosaminoglycan vs IP-10; type: binding; conditions: for Kd / koff / kon: GAG immobilized, 25° C.
Experimental: (§3) Affinity kinetics of the interaction between various CS/DS chains and each of L-selectin, P-selectin, CD44 and chemokine were examined by surface plasmon resonance using BIAcore™ biosensor [manufactured by BIAcore AB].
(§4) All experiments were performed at 25° C. At stages of washing and dissociation, buffer C (20 mM HEPES-NaOH, 0.15M NaCl, 1 mM CaCl2, 1 mM MgCl2, pH6.8) was used as a running buffer.
(§5) First, about 1.8 to 2.0 kiloresonance unit (1 kiloresonance unit=1 ng/mm^2) of streptavidin were covalently immobilized onto B1 sensor chip via a primary amine group using an amine coupling kit [manufactured by Amercham-Bioscience] according to the instruction provided by the manufacturer. The remaining activated groups were blocked with 150 μl of 1M ethanolamine-HCl (pH8.5). Then, each glycosaminoglycan which had been biotinylated at a reducing end was injected to a sensor tip surface by using EZ-link™ biotin-LC-hydrazide [manufactured by Pierce] so as to obtain about 150 resonance unit of an immobilization level, according to the method of Sadir et al. [J. Biol. Chem., 276, 8288-8296 (2001); all teachings of which are hereby incorporated by reference].
(§6) Binding assay was performed by injecting continuously each of various concentrations of secondary lymphoid tissue chemokine, γ-interferon inducible protein-10, stromal cell-derived factor-1β, monomeric L-selectin [manufactured by Genzyme-Techne], monomeric P-selectin [manufactured by Genzyme-Techne] and monomeric CD44, to a glycosaminoglycan-coupled sensor tip at a flow rate of 30 μl/min for 0 to 90 seconds, and then injecting a running buffer thereto. A response in resonance unit was recorded as a function of a time.
(§7) A sensor tip surface was regenerated with 300 μl of 1 M NaCl when chemokine or CD44 was used, or regenerated with 300 μl of 1 M NaCl, and additional 100 μl of 50 mM EDTA (pH8.0), when selectin was used. As a result of regeneration of a sensor tip surface, a remarkable change in a baseline was not observed.
(§8) An affinity kinetic parameter was determined by BIAevaluation 3.0 software [manufactured by Pharmacia Biosensor] using a single site binding model. […] In FIG. 6 and Table 3, SLC denotes secondary lymphoid tissue chemokin, IP-10 denotes γ-interferon inducible protein-10, SDF-1β denotes stromal cell-derived factor-1β, CS E denotes chondroitin sulfate E, and CS A denotes chondroitin sulfate A. In addition, in Table 3, Kd value for the interaction between monomeric CD44 and chondroitin sulfate E is a value calculated from a binding amount at equilibrium, and Kd value of the interaction between CD44 and hyaluronic acid is a value calculated using CD44-Ig.

[3] = test system: secondary lymphoid tissue chemokine; assay: ELISA, biotinylated versican binding to SLC in presence of glycosaminoglycan; conditions: 100 μg/ml glycosaminoglycan; FIG. 5
Experimental: as §1, §2

[4] = target: T1, stromal cell-derived factor-1β (Homo sapiens, UniProt P48061); assay: BIAcore surface plasmon resonance, immobilized glycosaminoglycan vs SDF-1β; type: binding; conditions: for Kd / koff / kon: GAG immobilized, 25° C.
T1 construct: purchased Pepro Tech
Experimental: as §3, §4, §5, §6, §7, §8

γ-interferon inducible protein-10, sequence (P02778 22-98): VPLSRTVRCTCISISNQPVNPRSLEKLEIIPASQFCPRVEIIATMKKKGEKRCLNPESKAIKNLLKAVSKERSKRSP
T1 sequence (P48061 22-93): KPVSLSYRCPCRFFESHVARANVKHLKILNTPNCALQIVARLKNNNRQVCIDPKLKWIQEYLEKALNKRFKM
CD44-Ig, sequence (P16070 21-178 limits assumed): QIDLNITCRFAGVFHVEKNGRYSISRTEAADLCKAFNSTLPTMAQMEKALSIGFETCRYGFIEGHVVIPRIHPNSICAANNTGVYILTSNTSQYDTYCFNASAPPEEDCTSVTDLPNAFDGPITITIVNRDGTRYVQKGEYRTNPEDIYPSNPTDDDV

chondroitin sulfate E [CS E]
Ca^2+ mobilization by secondary lymphoid tissue chemokine pre-incubated with glycosaminoglycan [1]: did not induce | inhibition of binding between biotinylated versican and CD44-Ig (CD44-Ig): inhibited | inhibition of binding between biotinylated versican and P-selectin-Ig (P-selectin-Ig): inhibited | interaction with immobilized glycosaminoglycan (sensorgram) [2]: bound | Kd [2]: 130 nM | koff [2]: 0.00211 s⁻¹ | kon [2]: 16200 M⁻¹ s⁻¹ | inhibition of binding between biotinylated versican and secondary lymphoid tissue chemokine [3]: inhibited | interaction with immobilized glycosaminoglycan (sensorgram) [4]: bound | Kd [4]: 293 nM | koff [4]: 0.0053 s⁻¹ | kon [4]: 18100 M⁻¹ s⁻¹

chondroitin sulfate A [CS A]
Ca^2+ mobilization by secondary lymphoid tissue chemokine pre-incubated with glycosaminoglycan [1]: remarkably induced | inhibition of binding between biotinylated versican and CD44-Ig (CD44-Ig): inhibited | inhibition of binding between biotinylated versican and P-selectin-Ig (P-selectin-Ig): not inhibited | interaction with immobilized glycosaminoglycan (sensorgram) [2]: did not interact | interaction with immobilized glycosaminoglycan (sensorgram) [4]: did not interact

dermatan polysulfate [DPS]
Ca^2+ mobilization by secondary lymphoid tissue chemokine pre-incubated with glycosaminoglycan [1]: did not induce | inhibition of binding between biotinylated versican and CD44-Ig (CD44-Ig): inhibited | inhibition of binding between biotinylated versican and P-selectin-Ig (P-selectin-Ig): inhibited | Kd [2]: 34.9 nM | koff [2]: 0.000923 s⁻¹ | kon [2]: 26400 M⁻¹ s⁻¹ | inhibition of binding between biotinylated versican and secondary lymphoid tissue chemokine [3]: inhibited

chondroitin polysulfate [CPS]
Ca^2+ mobilization by secondary lymphoid tissue chemokine pre-incubated with glycosaminoglycan [1]: did not induce | inhibition of binding between biotinylated versican and CD44-Ig (CD44-Ig): not remarkable | inhibition of binding between biotinylated versican and P-selectin-Ig (P-selectin-Ig): inhibited | Kd [2]: 73.2 nM | koff [2]: 0.0023 s⁻¹ | kon [2]: 31500 M⁻¹ s⁻¹ | inhibition of binding between biotinylated versican and secondary lymphoid tissue chemokine [3]: inhibited | Kd [4]: 86.3 nM | koff [4]: 0.00304 s⁻¹ | kon [4]: 35200 M⁻¹ s⁻¹
